The values that follow come from US20200405697A1, “Antitumor Agent” (Taiho Pharmaceutical Co., Ltd, priority 2017, published 2020).

For one assay, the system named is MV-4-11. Nature of the assay: Antitumor effect in human-derived blood cancer cell line (MV-4-11) subcutaneous transplantation model (in vivo). The following applies: oral, 100 mg/kg/day once per day for 14 days; RTV vs control group, Student-t test, p<0.05. Set-up: species or system nude mouse (BALB/cA Jcl-nu/nu). As for the experimental part: A human-derived blood cancer cell line MV-4-11 was transplanted subcutaneously into a nude mouse (BALB/cA Jcl-nu/nu, CLEA Japan, Inc.), and at the time when the tumor volume of the nude mouse on which the engrafted tumor reached 100 to 300 mm^3, four mice were assigned to each group by random stratification so that the average of the tumor volumes of each group was uniform (day 0), and the Example compound was orally administered daily at 100 mg/kg/day once per day for 14 days. Example Compound dosing solutions were prepared using 0.5% HPMC.
An electric balance for animals was used in body weight measurement. Rate of change in body weight on day n (BWCn) from body weight on day n (BWn) was calculated according to the following equation.
Rate of change in body weight BWCn (%)=(BWn−BW0)/BW0×100
Tumor volume (TV) was calculated according to the following equation by sandwiching and measuring the major axis and the minor axis with a digital caliper.
Tumor volume (mm^3)=Major axis (mm)×Minor axis (mm)×Minor axis (mm)/2
In order to compare the chronological transition of proliferation of tumor for the administration of each compound, relative tumor volume (RTV) setting the tumor volume at the time of grouping as 1 as the tumor proliferation rate was calculated according to the following formula, and the transition of the average value of RTV of each individual are shown in FIGS. 1 to 4.
RTV=(tumor volume at the day of tumor volume measurement)/(tumor volume at the time of the grouping)

The test system of assay [1] is HCT116 (Human large intestine cancer cell line). The assay can be described thus: Effect of combination of sulfonamide compound and other antitumor agent (CellTiter-Glo, combination index): HCT116. The assay is classed as cell-based. For orientation: In ATP-based viability assays light output follows the ATP content of the culture.
Method: Each cell line was seeded at 90 L/well to a 96-well culture plate (Thermo Fisher Scientific, Inc.) according to the above tables. The cell-seeded plate was cultured in an incubator set to 37° C. and 500 CO2. On the day following seeding, varying concentrations of the sulfonamide compound and the other antitumor agent were added in combination to the cells. […] The serial dilutions of each compound, or DW was added at 5μL/well to the plate such that each compound and DW, or the sulfonamide compound and the other antitumor agent were combined. […] The plate after the addition was cultured at 37° C. for 3 days under 5% CO2 conditions.
Three days later, CellTiter-Glo(R) 2.0 Reagent (Promega Corporation) was added at 100 μL/well, and the amount of luminescence was measured using a plate reader EnSpire(R) Multimode Plate Reader (PerkinElmer Co., Ltd.).
An average value from 3 wells was calculated as to each drug condition from the obtained data, and cell survival rate normalized against control wells supplemented with the vehicle (DW) was calculated. A Fa (fractional inhibition) value was calculated by subtracting the cell survival rate from 1.
Assay [2] deals with T1, human RNR (histidine tagged human M1 and human M2 proteins) (Homo sapiens, UniProt P23921).
T1 construct: made in house; host or cells: Escherichia coli
T1 sequence (P23921 1-792): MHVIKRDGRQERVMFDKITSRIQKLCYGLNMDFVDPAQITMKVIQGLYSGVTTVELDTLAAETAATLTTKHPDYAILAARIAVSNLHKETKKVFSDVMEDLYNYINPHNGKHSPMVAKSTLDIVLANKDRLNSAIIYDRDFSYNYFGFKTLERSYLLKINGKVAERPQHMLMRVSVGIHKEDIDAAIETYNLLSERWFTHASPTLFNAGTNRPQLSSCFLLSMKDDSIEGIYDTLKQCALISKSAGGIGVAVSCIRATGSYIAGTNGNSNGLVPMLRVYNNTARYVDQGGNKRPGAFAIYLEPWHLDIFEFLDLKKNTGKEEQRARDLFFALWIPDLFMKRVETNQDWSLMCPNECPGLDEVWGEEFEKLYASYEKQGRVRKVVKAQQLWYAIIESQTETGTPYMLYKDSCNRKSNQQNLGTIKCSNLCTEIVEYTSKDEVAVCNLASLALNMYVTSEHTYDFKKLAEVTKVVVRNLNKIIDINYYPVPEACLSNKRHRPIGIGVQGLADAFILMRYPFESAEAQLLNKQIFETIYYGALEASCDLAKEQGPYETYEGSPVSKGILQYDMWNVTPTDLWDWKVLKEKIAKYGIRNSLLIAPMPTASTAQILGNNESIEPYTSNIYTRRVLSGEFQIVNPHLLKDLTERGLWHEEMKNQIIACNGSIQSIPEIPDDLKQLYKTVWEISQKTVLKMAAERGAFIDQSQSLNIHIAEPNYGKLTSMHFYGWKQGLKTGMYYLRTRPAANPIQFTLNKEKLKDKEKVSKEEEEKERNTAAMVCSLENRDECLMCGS
The assay can be described thus: Human RNR inhibition effect (dCDP formation from CDP). To be noted: 10 μM CDP, 37° C. for 30 minutes, read-out: RNR inhibitory activity IC50. The assay is classed as biochemical. The method, boiled down: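 His-tagged human M1 (isoform 1) and N-terminal 59-aa-truncated M2 (isoform 2), E. coli-expressed, Ni-purified, preincubated 20 min with compound (1% DMSO). Reaction with 10 μM CDP, 2 mM ATP, 0.24 mM NADPH, 6 mM DTT, 4 mM Mg acetate, 100 mM KCl, 50 mM HEPES pH 7.2, 30 min at 37° C. dCDP formed quantified by reverse-phase HPLC after heat stop.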

The mark [3] stands for this setting: Example Compound 1 341 nM + Prexasertib 7.14 nM, molar ratio 1:0.02093.
The mark [4] stands for this setting: Example Compound 1 512 nM + Prexasertib 10.7 nM, molar ratio 1:0.02093.
[5] abbreviates: Example Compound 1 768 nM + AZD6738 508 nM, molar ratio 1:0.6621.
The mark [6] stands for this setting: Example Compound 1 768 nM + Prexasertib 16.1 nM, molar ratio 1:0.02093.
Setting [7] is: Example Compound 1 1150 nM + AZD6738 761 nM, molar ratio 1:0.6621.

The IC50 is the concentration at which inhibition is half-maximal. For `Cc1ccc(F)c([C@@H](C)[C@H](NS(=O)(=O)c2ccc(Br)cc2C(N)=O)c2n[nH]c(=O)o2)c1C` [Example 1, 5-bromo-2-(N-((1 S,2R)-2-(6-fluoro-2,3-dimethylphenyl)-1-(5-oxo-4,5-dihydro-1,3,4-oxadiazol-2-yl)propyl)sulfamoyl)benzamide], in the assay with MV-4-11, the “antitumor effect (relative tumor volume, RTV)” value is given as “antitumor effect”. Further, the CI value was determined as 0.451 in assay [1] (setting [3]); 0.243 in assay [1] (setting [4]); 0.264 in assay [1] (setting [5]); 0.197 in assay [1] (setting [6]); 0.218 in assay [1] (setting [7]). Further, the Fa value stood at 0.6993 in assay [1] (setting [3]); 0.9038 in assay [1] (setting [4]); 0.8782 in assay [1] (setting [5]); 0.9579 in assay [1] (setting [6]); 0.9579 in assay [1] (setting [7]). The IC50 in assay [2] came to 60 nM.
